Assay results as given in US10131652B2, “Pyrimidinyloxy benzene derivatives as herbicides” (E. I. DU PONT DE NEMOURS AND COMPANY, priority 2014, dated 2018).

Legend:
Format in all cases: in vivo
[1] = test system: Italian ryegrass (Lolium multiflorum); experiment: Test B pre-/postemergence plant response
In short: (§1)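 Evaluation is visual, about 10 days after application, rating injury from 0 (none) to 100 (complete control) relative to untreated controls. Application was a preemergence soil spray on seeded pots or a postemergence spray on one- to two-leaf plants.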

[2] = test system: barnyardgrass (Echinochloa crus-galli); experiment: Test B pre-/postemergence plant response
In short: as §1

corn (Zea mays) = experiment: Test B pre-/postemergence plant response
In short: as §1

[3] = test system: giant foxtail (Setaria faberii); experiment: Test B pre-/postemergence plant response
In short: as §1

kochia (Kochia scoparia) = experiment: Test B pre-/postemergence plant response
In short: as §1

[4] = test system: pigweed (Amaranthus retroflexus); experiment: Test B pre-/postemergence plant response
In short: as §1

[5] = test system: ragweed (common ragweed, Ambrosia elatior); experiment: Test B pre-/postemergence plant response
In short: as §1

[6] = test system: wheat (Triticum aestivum); experiment: Test B pre-/postemergence plant response
In short: as §1

[7] = test system: blackgrass (Alopecurus myosuroides); experiment: Test B postemergence plant response
In short: (§2)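 Values are visual control ratings (0 to 100) recorded approximately 10 days after postemergence application to greenhouse-grown plants of 2 to 10 cm, one- to two-leaf stage, each judged against untreated controls.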

[8] = test system: galium (catchweed bedstraw, Galium aparine); experiment: Test B postemergence plant response
In short: as §2

[9] = test system: barnyardgrass (Echinochloa crus-galli); experiment: Test C flooded paddy test plant response; details: Flood, 250 g ai/ha; scale of 0 to 100 where 0 is no effect and 100 is complete control; 13 to 15 days
In short: (§3)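 Readout is a visual 0–100 score (100 = complete control) versus controls at 13–15 days. Plants at 2-leaf stage, flooded to 3 cm, treated through paddy water.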

[10] = test system: ducksalad (Heteranthera limosa); experiment: Test C flooded paddy test plant response; details: Flood, 250 g ai/ha; scale of 0 to 100 where 0 is no effect and 100 is complete control; 13 to 15 days
In short: as §3

rice (Oryza sativa) = experiment: Test C flooded paddy test plant response; details: Flood, 250 g ai/ha; scale of 0 to 100 where 0 is no effect and 100 is complete control; 13 to 15 days
In short: as §3

[11] = test system: small-flower umbrella sedge (Cyperus difformis); experiment: Test C flooded paddy test plant response; details: Flood, 250 g ai/ha; scale of 0 to 100 where 0 is no effect and 100 is complete control; 13 to 15 days
In short: as §3

[12] = 31 g ai/ha, Preemergence, 0 to 100 scale where 0 is no effect and 100 is complete control
[13] = 125 g ai/ha, postemergence, 0 to 100 scale, 0 no effect, 100 complete control
[14] = Postemergence, 31 g ai/ha, 0 to 100 scale (0 no effect, 100 complete control)
[15] = Preemergence, 125 g ai/ha, 0 to 100 scale (0 no effect, 100 complete control)

Row | Structure (SMILES) | Plant response rating, Ryegrass, Italian [1, 12] | Plant response rating, Ryegrass, Italian [1, 13] | Plant response rating, Ryegrass, Italian [1, 14] | Ryegrass, Italian plant response rating [1, 15] | Plant response rating, Barnyardgrass [2, 12] | Plant response rating, Barnyardgrass [2, 13] | Plant response rating, Barnyardgrass [2, 14] | Barnyardgrass plant response rating [2, 15] | Plant response rating, Corn (corn (Zea mays); [13]) | Plant response rating, Corn (corn (Zea mays); [14]) | Plant response rating, Foxtail, Giant [3, 12] | Plant response rating, Foxtail, Giant [3, 13] | Plant response rating, Foxtail, Giant [3, 14] | Foxtail, Giant plant response rating [3, 15] | Plant response rating, Kochia (kochia (Kochia scoparia); [12]) | Plant response rating, Kochia (kochia (Kochia scoparia); [13]) | Plant response rating, Kochia (kochia (Kochia scoparia); [14]) | Kochia plant response rating (kochia (Kochia scoparia); [15]) | Plant response rating, Pigweed [4, 12] | Plant response rating, Pigweed [4, 13] | also measured
1 | Cn1nc(-c2c(Br)cccc2Oc2ncc(Cl)cn2)cc1C(F)(F)F [Compound 147] | 0 | 0 | 0 | 0 | 0 | 0 | 0 | 0 | 0 | 0 | 0 | 0 | 0 | 0 | 0 | 0 | 0 | 0 | 0 | 0 | Plant response rating, Pigweed [4, 14]: 0; Pigweed plant response rating [4, 15]: 0; Plant response rating, Ragweed [5, 12]: 0; Plant response rating, Ragweed [5, 13]: 0; Plant response rating, Ragweed [5, 14]: 0; Ragweed plant response rating [5, 15]: 0; Plant response rating, Wheat [6, 13]: 0; Plant response rating, Wheat [6, 14]: 0; Plant response rating, Blackgrass [7, 13]: 0; Plant response rating, Blackgrass [7, 14]: 0; Plant response rating, Galium [8, 13]: 0; Plant response rating, Galium [8, 14]: 0; Barnyardgrass plant response rating [9]: 0; Ducksalad plant response rating [10]: 0; Rice plant response rating (rice (Oryza sativa)): 0; Sedge, Umbrella plant response rating [11]: 0
2 | CC(=O)c1cc(-c2ccccc2Oc2ncc(Br)cn2)no1 [Compound 150] | 0 | 0 | 0 | 0 | 0 | 20 | 0 | 20 | 10 | 0 | 0 | 10 | 0 | 20 | 0 | 0 | 0 | 0 | 0 | 20 | Plant response rating, Pigweed [4, 14]: 10; Pigweed plant response rating [4, 15]: 20; Plant response rating, Ragweed [5, 12]: 0; Plant response rating, Ragweed [5, 13]: 0; Plant response rating, Ragweed [5, 14]: 0; Ragweed plant response rating [5, 15]: 0; Plant response rating, Wheat [6, 13]: 0; Plant response rating, Wheat [6, 14]: 0; Plant response rating, Blackgrass [7, 13]: 10; Plant response rating, Blackgrass [7, 14]: 0; Plant response rating, Galium [8, 13]: 10; Plant response rating, Galium [8, 14]: 0; Barnyardgrass plant response rating [9]: 0; Ducksalad plant response rating [10]: 0; Rice plant response rating (rice (Oryza sativa)): 0; Sedge, Umbrella plant response rating [11]: 0
